Data reported in patent US8742158B2, “Protease inhibitors” (TaiMed Biologics, Inc., priority 2006, dated 2014).
Where “and” joins values, the source holds several entries; their conditions need not be identical. Identical values can stand only once. Like-named read-outs stand apart in the source and are kept apart here.

Legend:
[1] = target: HIV-1 Protease (Human immunodeficiency virus type 1 group M subtype B (isolate HXB2) (HIV-1), UniProt P04585); test: Enzymatic (FRET fluorometric) assay for determining the inhibition constant (Ki) of compounds targeting the HIV protease; assay type: biochemical; conditions: for IC50: read-out: IC50 ENZYME HIV-1 Protease
Text: Enzymatic Assay for Determining the Inhibition Constant (Ki) of Synthetic Compounds Targeting the HIV Protease
This is a fluorometric assay based on the cleavage by protease of a substrate carrying a donor group (EDANS) and an acceptor group (DABCYL) on each side of the cleavage site, interacting together through fluorescence resonance energy transfer (FRET) as described by Matayoshi et al. (Science 247:[…], 1990).
After calculation of Vo and Vi, the inhibition constant (Ki) of the compound is determined using the equation of Henderson:
where Vo=the enzyme's initial velocity
Vi=the enzyme velocity in the presence of the inhibitory compound,
[I]=inhibitor concentration, [S]=substrate concentration,
Km=Michaelis-Menten constant and Kiapp=apparent Ki
Graphs are traced and the Ki determined using GraphPad Prism software v. 3.0.

[2] = system: HIV-1 viral strain NL4-3; test: Anti-viral assay in vitro (MTT, infected MT-4 cells, six days); assay type: cell-based; conditions: Human immunodeficiency virus 1, NL43, MT4, 144 h, read-out: ANTI-HIV-EC50 VIRAL STRAIN NL4-3
Protocol: Anti-Viral and Cytotoxicity Assays In Vitro
• To evaluate the EC50 of our compounds, various drug concentrations are incubated with the infected cell for six days and then the metabolic activity of the cells is monitored by the MTT assay. (See A. J. Japour et al., Antimicrobial Agents and Chemotherapy, 37, 1095-1101, 1993 and R. Pauwels et al. Journal of Virological Methods, 20, 309-321, 1988) • We use the laboratory viral strain NL4.3 as wild type virus and the cell line used is MT-4 which is a T-cell line highly sensitive to HIV-1. We also use some WT clinical strains. To address the resistance issue we assay the inhibitors with NL4.3 mutants which are designed to be resistant to specific commercially available inhibitors. • The same MTT assay is used to evaluate the CCIC50 (cell culture of IC50) of our compounds except that the virus is omitted.

[3] = KIGRAPHIC ENZYME HIV-1 Protease, Ki determined graphically, read-out: […] ENZYME HIV-1 Protease
[4] = calculated Ki, read-out: KI-CALC ENZYME HIV-1 Protease

Structure (SMILES)	Ki [1, 3]	IC50 [1]	EC50 [2]	Ki [1, 4]
COC(=O)N[C@H](C(=O)NCCCC[C@H](C(N)=O)N(CC(C)C)S(=O)(=O)c1ccc(N)cc1)C(c1ccccc1)c1ccccc1 [EX. 7]	49 pM and 42 pM	652 pM and 507 pM	30000 pM	–
COC(=O)N[C@H](C(=O)NCCCC[C@@H](CO)N(Cc1cccnc1)S(=O)(=O)c1ccc(N)cc1)C(c1ccccc1)c1ccccc1 [EX. 33]	–	1010 pM	196000 pM	< 3800 pM
Cc1ncccc1C(=O)N[C@@H](Cc1ccccc1Br)C(=O)NCCCC[C@@H](CO)N(CC(C)C)S(=O)(=O)c1ccc(N)cc1 [EX. 39]	183 pM	580 pM	70000 pM	< 3800 pM
Cc1ccc(C(=O)N[C@@H](Cc2ccccc2Br)C(=O)NCCCC[C@@H](CO)N(CC(C)C)S(=O)(=O)c2ccc(N)cc2)cn1 [EX. 40]	217 pM	567 pM	55000 pM	< 3800 pM
CC(C)CN([C@H](CO)CCCCNC(=O)[C@@H](Cc1ccccc1Br)NC(=O)c1ccc2c(c1)OCO2)S(=O)(=O)c1ccc(N)cc1 [EX. 41]	50 pM	336 pM	43000 pM	–
CC(C)CN([C@H](CO)CCCCNC(=O)C(Cc1ccccc1Br)NC(=O)c1ccncc1)S(=O)(=O)c1ccc(N)cc1 (stereo partly drawn) [EX. 42]	182 pM	618 pM	40000 pM	< 3800 pM
CC(C)CN([C@H](CO)CCCCNC(=O)[C@H](Cc1ccccc1Br)NC(=O)c1cnccn1)S(=O)(=O)c1ccc(N)cc1 [EX. 44]	318 pM	471 pM	60000 pM	–
